Target: T1, IGF-1R Ba/F3 (Homo sapiens, UniProt P08069)
T1 construct: fused on or other part: TEL- (or BCR-) IGF-1R in Ba/F3: the kinase part holds the site
Test: Ba/F3 Cell Viability Inhibition Assay (IGF-1R Ba/F3)
Assay type: cell-based, murine
Conditions: Tel-TK transformed Ba/F3 cells, 48 hours, Britelite luminescence
In short: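 IL-3-independent murine Ba/F3 cells transformed with a TEL/BCR-fused IGF-1R kinase were seeded at 3750 cells/well and exposed to serially diluted compound for 48 h at 37 °C. Viability was read by Britelite luminescence. IC50 is the concentration giving 50% of DMSO-control viability, from a logistic fit.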

T1 sequence (P08069 999-1274 limits assumed): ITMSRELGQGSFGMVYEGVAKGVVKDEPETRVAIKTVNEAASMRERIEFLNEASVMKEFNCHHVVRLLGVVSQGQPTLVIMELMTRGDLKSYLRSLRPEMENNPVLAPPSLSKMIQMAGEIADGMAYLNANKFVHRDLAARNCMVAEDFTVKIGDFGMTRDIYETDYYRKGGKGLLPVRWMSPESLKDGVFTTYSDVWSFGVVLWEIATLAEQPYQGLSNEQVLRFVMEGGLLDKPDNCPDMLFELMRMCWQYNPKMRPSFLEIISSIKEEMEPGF

SMILES | IC50 [nM]
Cc1cc(Nc2nc(Nc3cc(C)c(C4CCN(C(=O)CN5CCN(C)CC5)CC4)cc3F)ncc2Cl)n[nH]1 [Compound 105, 1-(4-(4-(5-chloro-4-(5-methyl-1H-pyrazol-3-ylamino)pyrimidin-2-ylamino)-5-fluoro-2-methylphenyl)piperidin-1-yl)-2-(4-methylpiperazin-1-yl)ethanone] | 51
Cc1cc(C2CCN(C(=O)CN(C)C)CC2)c(C)cc1Nc1ncc(Cl)c(Nc2cc(C3CC3)[nH]n2)n1 [Compound 186, 1-(4-(4-(5-chloro-4-(5-cyclopropyl-1H-pyrazol-3-ylamino)pyrimidin-2-ylamino)-2,5-dimethylphenyl)piperidin-1-yl)-2-(dimethylamino)ethanone] | 12
CNC(=O)C(C)N1CCC(c2cc(F)c(Nc3ncc(Cl)c(Nc4cc(C)[nH]n4)n3)cc2C)CC1 (stereo not drawn) [Compound 50, 2-(4-(4-(5-chloro-4-(5-methyl-1H-pyrazol-3-ylamino)pyrimidin-2-ylamino)-5-fluoro-2-methylphenyl)piperidin-1-yl)-N-methylpropanamide] | 22
CCN1CCC(c2cc(F)c(Nc3ncc(Cl)c(Nc4cc(C)[nH]n4)n3)cc2C(F)(F)F)CC1 [Compound 240, 5-chloro-N2-(4-(1-ethylpiperidin-4-yl)-2-fluoro-5-(trifluoromethyl)phenyl)-N4-(5-methyl-1H-pyrazol-3-yl)pyrimidine-2,4-diamine] | 102
Cc1cc(Nc2nc(Nc3cc(C)c(C4CCN(C(=O)CN5CCCCC5)CC4)cc3C)ncc2Cl)n[nH]1 [Compound 101, 1-(4-(4-(5-chloro-4-(5-methyl-1H-pyrazol-3-ylamino)pyrimidin-2-ylamino)-2,5-dimethylphenyl)piperidin-1-yl)-2-(piperidin-1-yl)ethanone] | 7
Cc1cc(Nc2nc(Nc3cc(C)c(C4CCN(C(=O)CN)CC4)cc3F)ncc2Cl)n[nH]1 [Compound 79, 2-amino-1-(4-(4-(5-chloro-4-(5-methyl-1H-pyrazol-3-ylamino)pyrimidin-2-ylamino)-5-fluoro-2-methylphenyl)piperidin-1-yl)ethanone] | 75
Cc1cc(Nc2nc(Nc3cc(C)c(C4CCNCC4)cc3C)ncc2Cl)n[nH]1 [Compound 256, 5-chloro-N2-(2,5-dimethyl-4-(piperidin-4-yl)phenyl)-N4-(5-methyl-1H-pyrazol-3-yl)pyrimidine-2,4-diamine] | 44
Cc1cc(Nc2nc(Nc3cc(C)c(C4CCN(C(=O)[C@@H]5CC(O)CN5C)CC4)cc3F)ncc2Cl)n[nH]1 (stereo partly drawn) [Compound 128, (4-(4-(5-chloro-4-(5-methyl-1H-pyrazol-3-ylamino)pyrimidin-2-ylamino)-5-fluoro-2-methylphenyl)piperidin-1-yl)((2S)-4-hydroxy-1-methylpyrrolidin-2-yl)methanone] | 175
CNC(=O)CN1CCC[C@@H](c2cc(C)c(Nc3ncc(Cl)c(Nc4cc(C)[nH]n4)n3)cc2C)C1 (single isomer, unassigned) [Compound 208] | 10
Cc1cc(Nc2nc(Nc3cc(C)c(C4CCN(C(=O)C5CCNCC5)CC4)cc3F)ncc2Cl)n[nH]1 [Compound 115, (4-(4-(5-chloro-4-(5-methyl-1H-pyrazol-3-ylamino)pyrimidin-2-ylamino)-5-fluoro-2-methylphenyl)piperidin-1-yl)(piperidin-4-yl)methanone] | 1570
Cc1cc(Nc2nc(Nc3cc(C)c(C4CCN(C(=O)c5cnn(C)c5C(F)(F)F)CC4)cc3F)ncc2Cl)n[nH]1 [Compound 130, (4-(4-(5-chloro-4-(5-methyl-1H-pyrazol-3-ylamino)pyrimidin-2-ylamino)-5-fluoro-2-methylphenyl)piperidin-1-yl)(1-methyl-5-(trifluoromethyl)-1H-pyrazol-4-yl)methanone] | 61
Cc1cc(Nc2nc(Nc3cc(C)c(C4CCN(C(=O)c5c(C)noc5C)CC4)cc3F)ncc2Cl)n[nH]1 [Compound 137, (4-(4-(5-chloro-4-(5-methyl-1H-pyrazol-3-ylamino)pyrimidin-2-ylamino)-5-fluoro-2-methylphenyl)piperidin-dimethylisoxazol-4-yl)methanone] | 18
CNC(=O)[C@H](C)N1CCC(c2cc(C)c(Nc3ncc(Cl)c(Nc4cc(C)[nH]n4)n3)cc2C)CC1 [Compound 168, (S)-2-(4-(4-(5-chloro-4-(5-methyl-1H-pyrazol-3-ylamino)pyrimidin-2-ylamino)-2,5-dimethylphenyl)piperidin-1-yl)-N-methylpropanamide] | 10
Cc1cc(Nc2nc(Nc3cc(C)c(C4CCN(C5CCN(C(=O)OC(C)(C)C)C5)CC4)cc3F)ncc2Cl)n[nH]1 (stereo not drawn) [Compound 291, tert-butyl 3-(4-(4-(5-chloro-4-(5-methyl-1H-pyrazol-3-ylamino)pyrimidin-2-ylamino)-5-fluoro-2-methylphenyl)piperidin-1-yl)pyrrolidine-1-carboxylate] | 67
Cc1cc(Nc2nc(Nc3cc(C)c(C4CCN(CCCS(=O)(=O)N5CCCC5)CC4)cc3F)ncc2Cl)n[nH]1 [Compound 244, 5-chloro-N2-(2-fluoro-5-methyl-4-(1-(3-(pyrrolidin-1-ylsulfonyl)propyl)piperidin-4-yl)phenyl)-N4-(5-methyl-1H-pyrazol-3-yl)pyrimidine-2,4-diamine] | 84
Cc1cc(Nc2nc(Nc3cc(C)c(C4CCN(C(=O)CN5CCOCC5)CC4)cc3C)ncc2Cl)n[nH]1 [Compound 102, 1-(4-(4-(5-chloro-4-(5-methyl-1H-pyrazol-3-ylamino)pyrimidin-2-ylamino)-2,5-dimethylphenyl)piperidin-1-yl)-2-morpholinoethanone] | 9
Cc1cc(Nc2nc(Nc3cc(C(F)(F)F)c(N4CCN(C)CC4)cc3C)ncc2Cl)n[nH]1 [Compound 156, 5-chloro-N4-(5-methyl-1H-pyrazol-3-yl)-N2-(2-methyl-4-(4-methylpiperazin-1-yl)-5-(trifluoromethyl)phenyl)pyrimidine-2,4-diamine] | 40
CCC(C(N)=O)N1CCC(c2cc(C)c(Nc3ncc(Cl)c(Nc4cc(C)[nH]n4)n3)cc2C)CC1 (stereo not drawn) [Compound 185, 2-(4-(4-(5-chloro-4-(5-methyl-1H-pyrazol-3-ylamino)pyrimidin-2-ylamino)-2,5-dimethylphenyl)piperidin-1-yl)butanamide] | 9
Cc1cc(Nc2nc(Nc3cc(C)c(C4CCCN(C(=O)CN(C)C)C4)cc3C)ncc2Cl)n[nH]1 (stereo not drawn) [Compound 180, 1-(3-(4-(5-chloro-4-(5-methyl-1H-pyrazol-3-ylamino)pyrimidin-2-ylamino)-2,5-dimethylphenyl)piperidin-1-yl)-2-(dimethylamino)ethanone] | 25
Cc1cc(Nc2nc(Nc3cc(C)c(C4CCOC(=O)C4)cc3C)ncc2Cl)n[nH]1 (stereo not drawn) [Compound 152, 4-(4-(5-chloro-4-(5-methyl-1H-pyrazol-3-ylamino)pyrimidin-2-ylamino)-2,5-dimethylphenyl)tetrahydro-2H-pyran-2-one] | 155
Cc1cc(Nc2nc(Nc3cc(C(F)(F)F)c(C4CCN(C)CC4)cc3F)ncc2Cl)n[nH]1 [Compound 216, 5-chloro-N2-(2-fluoro-4-(1-methylpiperidin-4-yl)-5-(trifluoromethyl)phenyl)-N4-(5-methyl-1H-pyrazol-3-yl)pyrimidine-2,4-diamine] | 47

Reference: patent publication US8859574B2 (IRM LLC, priority 2008, dated 2014)
